Laboratory results as given in patent publication US20160151451A1, “METHOD FOR GENERATING CARDIOMYOCYTES” (Korea Advanced Institute of Science and Technology (KAIST), priority 2014, published 2016).
Where a name gives a salt, the structure may show the parent alone. Read-outs that look alike come from different tables or passages of the source.

Tests used:
[1] = system: mouse ESC-derived Flk1^+ MPCs; assay: Differentiation of mouse ESC-derived Flk1^+ MPCs into cardiomyocytes in OP9 co-culture; type: cell-based; details: for optimal dose of reagent, determined by total and relative number of differentiated cTnT^+ cells: dose optimization, FIGS. 2A-D
Procedure: (§1) For induction of Flk1^+ MPCs, ESCs and iPSCs were cultured without LIF and plated on a 0.1% gelatin-coated dish at cell density 1-1.5×10^3 cells/cm^2 in the differentiation medium (alpha MEM, Invitrogen) with 10% fetal bovine serum (FBS) (Welgene), 2-mercaptoethanol (Invitrogen), L-glutamine (Invitrogen), and antibiotics (Invitrogen), which was changed every 2 days, for 4.5 days. At day 4.5, differentiated ESCs and iPSCs were harvested with 0.25% trypsin-EDTA and antigen recovery was performed in the differentiation medium for 30 min in an incubator. Then, cells were washed using phosphate buffered saline (PBS)/2% FBS and incubated with biotin-conjugated anti-mouse Flk1^+ antibody (clone AVAS 12a1, eBioscience) and […] MicroBeads (Miltenyi Biotec). Flk1^+ MPCs were sorted by AutoMACS Pro Separator (Miltenyi Biotec). For induction of cardioblasts and cardiomyocytes, sorted Flk1^+ MPCs were plated onto the MMC (AG scientific) treated confluent OP9 cells at a density of 5-10×10^3 cells/cm^2. For the induction of cardiomyocytes in a feeder free system, ESCs were plated on a 0.1% gelatin coated dish at cell density 3×10^3 cells/cm^2 without OP9 cells. Cells were cultured in the differentiation medium which was changed every 2 days.
CsA (a gift from Novartis Pharma, Korea), 6-Hydroxy-2,5,7,8-tetramethylchroman-2-carboxylic acid (Trolox, Sigma Aldrich), and EW7197 (Son et al., 2014) were dissolved in dimethyl sulfoxide (DMSO, Sigma Aldrich). Y27632 (Calbiochem) was dissolved in distilled water. Reagents were treated at the time of medium change. DMSO was treated as a control vehicle.
(§2) Differentiating Flk1^+ MPCs on OP9 cells were harvested with 0.25% trypsin-EDTA or dissociation buffer (Invitrogen). […] To analyze cTnT^+ cells, the cells were permeabilized using Cytofix/Cytoperm solution (BD Biosciences) for 15 min. […] After washing in 10% Perm/Wash buffer (BD Biosciences), the cells were incubated for 10 min with Cy5-conjugated anti-mouse IgG antibody (Invitrogen). The cells were washed with 10% Perm/Wash buffer (BD Biosciences) and then analyzed. In live cell analysis and sorting, dead cells were excluded using 4,6-diamidino-2-phenylindole (DAPI, Invitrogen) and OP9 cells were excluded from Flk1^+ MPCs by gating in flow cytometry. The differentiated cardiomyocytes were sorted using αMHC-GFP. Analyses and sorting were performed by FACS Aria II (Beckton Dickinson). Data were analyzed using FlowJo Version 7.5.4 software (TreeStar).
The cells were fixed with 2% paraformaldehyde (PFA) and blocked with 5% goat (or donkey) serum in PBST (0.1% Tween 20 in PBS) for 1 hr at room temperature (RT). […] After being washed with PBST 3 times, the cells were incubated for 2 hr at room temperature with the following secondary antibodies: Cy3-conjugated anti-mouse IgG antibody (Invitrogen), FITC-conjugated anti-rat IgG (Jackson ImmunoResearch), and Cy3-conjugated anti-rabbit IgG (Jackson ImmunoResearch) antibodies. After being stained with the antibodies, the cells were mounted in fluorescent mounting medium (DAKO). Nuclei were stained with 4,6-diamidino-2-phenylindole (DAPI, Invitrogen). Immunofluorescence staining of mitochondria was performed using MitoTracker Orange CMTMRos probe (Invitrogen) and cells were incubated with probe for 30 to 60 min at 37° C. in serum free medium before fixation. Immunocytochemistry stained images were obtained using an LSM510 confocal fluorescence microscope (Carl Zeiss). Live images of cardiomyocyte differentiation process and αMHC GFP^+ cardiomyocytes were obtained using Axiovert 200M microscope (Carl Zeiss) equipped with AxioCam MRm (Carl Zeiss). Images were analyzed using Image J software (http://imagej.nih.gov/ij/, 1.47V, NIH, USA). Phase-contrast images including beating cardiomyocytes were obtained using an Infinity X digital camera and DpxView LE software (DeltaPix).

[2] = system: mouse ESC-derived Flk1^+ MPCs; assay: Induction of PDGFRα^+Flk1^− cardioblasts (PCBs) from mouse ESC-derived Flk1^+ MPCs; type: cell-based; details: each reagent of CsAYTE alone; FIGS. 11A, 11B
Procedure: as §1
Differentiating Flk1^+ MPCs on OP9 cells were harvested with 0.25% trypsin-EDTA or dissociation buffer (Invitrogen). […] To analyze cTnT^+ cells, the cells were permeabilized using Cytofix/Cytoperm solution (BD Biosciences) for 15 min. […] The cells were washed with 10% Perm/Wash buffer (BD Biosciences) and then analyzed. […] Data were analyzed using FlowJo Version 7.5.4 software (TreeStar).
The cells were fixed with 2% paraformaldehyde (PFA) and blocked with 5% goat (or donkey) serum in PBST (0.1% Tween 20 in PBS) for 1 hr at room temperature (RT). […] Immunocytochemistry stained images were obtained using an LSM510 confocal fluorescence microscope (Carl Zeiss). […] Images were analyzed using Image J software (http://imagej.nih.gov/ij/, 1.47V, NIH, USA). […]

PCBs = assay: PCB-derived cardiomyocyte differentiation with indicated reagents after PCB induction, OP9 co-culture; type: cell-based, mouse; details: FIGS. 14B, 14C
Procedure: as §2

[3] = system: delayed rectifying K^+ channels
[4] = system: voltage-gated Na^+ channels; type: cell-based, mouse
ROCK = type: cell-based
Excerpt: The meaning of “Rho-associated protein kinase (ROCK) inhibitor” is well known in the art. An assay for determining a ROCK suppressor or ROCK inhibitor can include for example the following method. ROCKs were discovered as the first effectors of Rho and they induce the formation of stress fibers and focal adhesions by phosphorylating MLC (myosin light chain). Therefore, an assay for determining ROCK suppression is confirming MLC phosphorylation inhibition such as by Western blotting.

T-type Ca^2+ channels = assay: Voltage-clamp recording of T-type Ca^2+ current (ICaT) in M^+CMs; type: cell-based, mouse; details: 1 μM
[5] = in combination with CsA, data not shown

NC(=O)c1ncn([C@@H]2O[C@H](CO)[C@@H](O)[C@H]2O)c1N [AICAR]
effect on Flk1^+ MPC differentiation into cTnT^+ cells [1]: rather inhibited or did not affect

Cc1c[nH]c(-c2cnc(NCCNc3ccc(C#N)cn3)nc2-c2ccc(Cl)cc2Cl)n1 [CHIR99021]
effect on Flk1^+ MPC differentiation into cTnT^+ cells [1, 5]: rather inhibited or did not affect

c1cc(-c2cnn3cc(-c4ccc(OCCN5CCCCC5)cc4)cnc23)ccn1 [Compound C]
effect on Flk1^+ MPC differentiation into cTnT^+ cells [1, 5]: rather inhibited or did not affect

C[C@H](NC(=O)Cc1cc(F)cc(F)c1)C(=O)N[C@H](C(=O)OC(C)(C)C)c1ccccc1 [DAPT]
effect on Flk1^+ MPC differentiation into cTnT^+ cells [1, 5]: rather inhibited or did not affect

Cc1cccc(-c2[nH]c(CNc3ccccc3F)nc2-c2ccc3ncnn3c2)n1 [EW7197, N-[[4-([1,2,4]triazolo[1,5-a]pyridin-6-yl)-5-(6-methylpyridin-2-yl)-1H-imidazol-2-yl]methyl]-2-fluoroaniline]
optimal dose of reagent, determined by total and relative number of differentiated cTnT^+ cells [1]: 1 µg/mL
Flk1^+ MPC differentiation into PCBs by each reagent [2]: 45.3%
effect of omission of the reagent from CsAYTE on population of cTnT^+ and αMHC-GFP^+ cells (PCBs): slightly increased

CCC(=O)NC[C@H](Cc1ccc(OCCc2nc(-c3ccccc3)oc2C)cc1)N/C(C)=C\C(=O)c1ccc(C(F)(F)F)cc1 [GW6471]
effect on Flk1^+ MPC differentiation into cTnT^+ cells [1, 5]: rather inhibited or did not affect

Cn1c2ccccc2c2c3c(c4c5ccccc5n(CCC#N)c4c21)CNC3=O [Go6976]
effect on Flk1^+ MPC differentiation into cTnT^+ cells [1, 5]: rather inhibited or did not affect

CCCCCCOC(=O)[C@]1(O)C[C@@H]2O[C@@]1(C)n1c3ccccc3c3c4c(c5c6ccccc6n2c5c31)C(=O)NC4 [KT5720]
effect on Flk1^+ MPC differentiation into cTnT^+ cells [1, 5]: rather inhibited or did not affect

COC(=O)[C@@]1(OC)C[C@H]2O[C@]1(C)n1c3ccccc3c3c4c(c5c6ccccc6n2c5c31)C(=O)N(C)C4 [KT5823]
effect on Flk1^+ MPC differentiation into cTnT^+ cells [1, 5]: rather inhibited or did not affect

O=S(=O)(c1cccc2c(I)cccc12)N1CCCNCC1 [ML7]
effect on Flk1^+ MPC differentiation into cTnT^+ cells [1, 5]: rather inhibited or did not affect

COc1cccc(-c2cc(=O)c3ccccc3o2)c1N [PD98059]
effect on Flk1^+ MPC differentiation into cTnT^+ cells [1, 5]: rather inhibited or did not affect

CC[N+](CC)(CC)CC [TEA, tetraethylammonium]
delayed rectifier K^+ current (IK) [3]: inhibited

NC1=N[C@H](O)[C@H]2[C@H]3O[C@]4(O)O[C@@H]([C@@H](O)[C@@]2(N1)[C@@H]4O)[C@]3(O)CO [TTX, tetrodotoxin]
voltage gated Na^+ current (INa) [4]: inhibited

Cc1c(C)c2c(c(C)c1O)CCC(C)(C(=O)O)O2 (stereo not drawn) [Trolox, 6-hydroxy-2,5,7,8-tetramethylchroman-2-carboxylic acid]
optimal dose of reagent, determined by total and relative number of differentiated cTnT^+ cells [1]: 400 µM
Flk1^+ MPC differentiation into PCBs by each reagent [2]: 19.3%

C[C@@H](N)[C@H]1CC[C@H](C(=O)Nc2ccncc2)CC1 [Y27632, [(+)-(R)-trans-4-(1-aminoethyl)-N-(4-pyridyl)cyclohexanecarboxamidedihydrochloride]]
optimal dose of reagent, determined by total and relative number of differentiated cTnT^+ cells [1]: 10 µM
MLC phosphorylation in Flk1^+ MPCs during differentiation (ROCK): inhibits
Flk1^+ MPC differentiation into PCBs by each reagent [2]: 22.0%

COCC(=O)O[C@]1(CCN(C)CCCc2nc3ccccc3[nH]2)CCc2cc(F)ccc2[C@@H]1C(C)C [mibefradil]
T-type Ca^2+ currents (ICaT) (T-type Ca^2+ channels): inhibited
